Data on 43 molecules can be found in paper PMC6009965, “α-Glucosidase inhibition by flavonoids: an in vitro and in silico structure–activity relationship study” (Journal of Enzyme Inhibition and Medicinal Chemistry, 2017).

One assay addresses T1, yeast α-glucosidase (Saccharomyces cerevisiae, UniProt P53341).
T1 construct: purchased Sigma-Aldrich Co. LLC (St. Louis, MO)
In words: Inhibitory kinetic analysis (Michaelis–Menten, Lineweaver–Burk plots). Format: biochemical. The following applies: for Type of inhibition: pNPG 300, 600 and 1200 μM. The procedure:
Briefly, the enzyme (0.05 U/mL), dissolved in 100 mM phosphate buffer (pH 6.8), was pre-incubated at 37 °C with the above mentioned flavonoids in a 96-well plate, for 5 min. In sequence, pNPG was added (300, 600 and 1200 μM) and incubated in the reaction mixture at 37 °C for 30 min.
The study of the inhibition type (competitive, uncompetitive, non-competitive or mixed) of the tested flavonoids was performed using the nonlinear regression Michaelis–Menten enzyme kinetics and the corresponding Lineweaver–Burk double reciprocal plots for each concentration of the inhibitor and substrate. The Ki values were calculated with GraphPad Software 6.0 by plotting the reciprocal of maximum velocity (1/V max) (y axis) against the flavonoid concentrations (x axis) (Table 2)[38–40].
The type of inhibition parameters were all calculated with GraphPad Software 6.0. The obtained results represent at least three independent experiments.

The test system of a further assay is α-glucosidase. The following applies: cited from earlier work; for Activity against α-glucosidase catalytic activity: ref Gao et al. 27.
For assay [1], the target named is T2, α-glucosidase from Saccharomyces cerevisiae (Saccharomyces cerevisiae, UniProt P53341).
T2 construct: purchased Sigma-Aldrich Co. LLC (St. Louis, MO)
T2 sequence (P53341 whole entry): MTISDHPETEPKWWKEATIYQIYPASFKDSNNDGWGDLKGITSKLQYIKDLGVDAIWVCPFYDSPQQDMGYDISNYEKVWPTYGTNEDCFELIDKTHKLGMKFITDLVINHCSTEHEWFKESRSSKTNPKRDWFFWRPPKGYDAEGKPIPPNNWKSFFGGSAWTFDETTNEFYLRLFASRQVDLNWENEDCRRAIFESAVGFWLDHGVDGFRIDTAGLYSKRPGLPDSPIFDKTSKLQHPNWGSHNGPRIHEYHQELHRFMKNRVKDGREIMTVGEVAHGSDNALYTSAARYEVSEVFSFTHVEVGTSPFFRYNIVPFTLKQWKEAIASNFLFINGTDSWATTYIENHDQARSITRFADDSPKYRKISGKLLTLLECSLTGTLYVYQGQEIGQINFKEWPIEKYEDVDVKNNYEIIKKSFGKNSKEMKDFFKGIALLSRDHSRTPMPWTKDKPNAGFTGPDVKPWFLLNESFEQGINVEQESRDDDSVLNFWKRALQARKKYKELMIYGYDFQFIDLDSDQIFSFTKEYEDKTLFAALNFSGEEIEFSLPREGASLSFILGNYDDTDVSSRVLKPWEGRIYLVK
In words: biochemical. The protocol:
Compounds A1, A2, A3, A4, A5, A6, B1, B2, B3, B4, C1, C2, C3, C4, C5, C6, C8, C9, D1 (chrysin), D2 (galangin) and D5 were obtained from Indofine Chemical Company, Inc. (Hillsborough, NJ). The flavonoids C7, C10, C11, C12, C13, D10, D11, D12, D13, D14 and D17 were synthesised as previously described. For the enzymatic assays, flavonoids were dissolved in DMSO (the final concentration of DMSO in the reactional mixture was 4.76%).
The α-glucosidase activity was measured using a method of Tadera et al.[31] slightly modified. The assay was carried out by monitoring the α-glucosidase-mediated transformation of the substrate pNPG into α-D-glucose and p-nitrophenol, at 405 nm. Briefly, in a 96-well plate, the enzyme (0.05 U/mL), dissolved in 100 mM phosphate buffer (pH 6.8), was pre-incubated at 37 °C for 5 min with the flavonoids (0–200 μM). In sequence, pNPG was added (600 μM) and incubated in the reaction mixture at 37 °C for 30 min. The enzymatic reaction was monitored spectrophotometrically, in a microplate reader (Synergy HT, BIO-TEK), by measuring the absorbance at 405 nm. The obtained values correspond to the slope measured between 5 and 20 min. […] The obtained results represent at least three independent experiments.

[2] abbreviates: read-out: Inhibitory activity at the highest tested concentration.
The mark [3] stands for this setting: enzyme 0.05 U/mL, pNPG 600 μM, pH 6.8, 37 °C, mean ± SEM, read-out: IC50.
[4] abbreviates: mean ± SEM, from 1/Vmax vs flavonoid concentration, read-out: Ki.

Read-outs that look alike come from different tables or passages of the source.

T1 sequence (P53341 whole entry): as above

Regarding `C[C@H]1O[C@H](O[C@H]2[C@H](O)[C@@H](O)[C@@H](O[C@H]3[C@H](O)[C@@H](O)C(O)O[C@@H]3CO)O[C@@H]2CO)[C@H](O)[C@@H](O)[C@@H]1N[C@H]1C=C(CO)[C@@H](O)[C@H](O)[C@H]1O` (stereo partly drawn) [Acarbose, reference compound], the Type of inhibition result on yeast α-glucosidase is listed as “Competitive”; with α-glucosidase (ref Kim et al. 68, Lopez et al. 69), “competitive”; in the assay on α-glucosidase (ref Son et al. 70), “mixed type of inhibition”. Regarding `O=c1cc(-c2ccccc2)oc2ccccc12` [Compound A1, Flavone], in assay [1], the “Inhibitory activity against α-glucosidase (in words)” value (shortened to “Inhibitory activity”) is “not able to inhibit α-glucosidase”. In addition, the inhibition at 200 µM in assay [1] (setting [2]) is less than 20%. On to `O=c1cc(-c2cccc(O)c2)oc2ccccc12` [Compound A2], for which, in assay [1], the “Inhibitory activity” value is listed as “low or no inhibitory activity”. Moreover, in assay [1] (setting [2]), the inhibition at 200 µM is less than 20%. In the case of `O=c1cc(-c2ccc(O)cc2)oc2ccccc12` [Compound A3], the “Inhibitory activity” value in assay [1] is given as “low or no inhibitory activity”. Besides, the inhibition at 200 µM in assay [1] (setting [2]) is less than 20%. For `O=c1cc(-c2ccc(O)c(O)c2)oc2ccccc12` [Compound A4], in that order: “low or no inhibitory activity” and 32 ± 4%. The term Ki denotes a measure of affinity in units of concentration, obtained from inhibition or displacement. For orientation: IC50 means the concentration at which inhibition is half-maximal. Consider `O=c1c(O)c(-c2ccc(O)c(O)c2)oc2ccccc12` [Compound A5], for which, at yeast α-glucosidase, the inhibitory constant (Ki) is 41 ± 7 µM and the Type of inhibition entry was “Mixed”. In assay [1] (setting [3]), the IC50 was 54 ± 3 µM. As to `COc1ccc(-c2oc3ccccc3c(=O)c2O)cc1OC` [Compound A6], the concentration for half-maximal inhibition (IC50) in assay [1] (setting [3]) is greater than 100 µM. Also, in assay [1] (setting [2]), the inhibition at 100 µM was less than 20%. Regarding `O=c1cc(-c2ccccc2)oc2cccc(O)c12` [Compound B1], the “Activity against α-glucosidase catalytic activity” value in the assay with α-glucosidase is “no activity”. Besides, the inhibition at 200 µM in assay [1] (setting [2]) is less than 20%. For `O=c1cc(-c2cccc(O)c2)oc2cccc(O)c12` [Compound B2], the inhibition at 200 µM in assay [1] (setting [2]) was 31 ± 4%.

For `O=c1cc(-c2ccc(O)cc2)oc2cccc(O)c12` [Compound B3], at yeast α-glucosidase, the Ki was 127 ± 9 µM and the Type of inhibition entry was “Mixed”. Besides, the IC50 in assay [1] (setting [3]) worked out at 66 ± 2 µM. With `O=c1cc(-c2ccc(O)c(O)c2)oc2cccc(O)c12` [Compound B4], the IC50 in assay [1] worked out at 66 ± 7 µM. `O=c1cc(-c2ccccc2)oc2cc(O)ccc12` [Compound C1]: the “Activity against α-glucosidase catalytic activity” value in the assay on α-glucosidase is “no activity”. Besides, the IC50 in assay [1] is greater than 200 µM. Also, the inhibition at 200 µM in assay [1] (setting [2]) was less than 20%.

On to `O=c1cc(-c2cccc(O)c2)oc2cc(O)ccc12` [Compound C2], for which, in assay [1] (setting [3]), the half-inhibitory concentration (IC50) is 53 ± 4 µM. As for `O=c1cc(-c2ccc(O)cc2)oc2cc(O)ccc12` [Compound C3], the IC50 in assay [1] (setting [3]) is roughly 200 µM. Same read-out and setting: then `O=c1c(O)c(-c2cccc(O)c2)oc2cc(O)ccc12` [Compound C4], with 42 ± 4 µM. Turning to `O=c1c(O)c(-c2ccc(O)cc2)oc2cc(O)ccc12` [Compound C5], in assay [1] (setting [3]), the half-inhibitory concentration (IC50) worked out at 96 ± 10 µM. Still for that read-out and setting: the figure for `O=c1cc(-c2ccc(O)c(O)c2)oc2cc(O)ccc12` [Compound C6] is 95 ± 7 µM. `O=c1c(O)c(-c2ccc(O)c(O)c2)oc2c(O)c(O)ccc12` [Compound C7]: at yeast α-glucosidase, affinity was put at a Ki of 6.5 ± 0.2 µM and the Type of inhibition result was “Competitive”. The concentration for half-maximal inhibition (IC50) in assay [1] (setting [3]) is 7.6 ± 0.4 µM.

For `COc1cccc(-c2oc3cc(OC)ccc3c(=O)c2O)c1` [Compound C8], the inhibition at 100 µM in assay [1] (setting [2]) was determined as 22 ± 2%.

As for `COc1ccc(-c2oc3cc(OC)ccc3c(=O)c2O)cc1` [Compound C9], in assay [1] (setting [2]), the inhibition at 200 µM was less than 20%. Turning to `COc1ccc2c(=O)c(O)c(-c3ccc(O)c(O)c3)oc2c1OC` [Compound C10], in assay [1], the IC50 was determined as 86 ± 6 µM. As to `COc1ccc(-c2oc3c(O)c(O)ccc3c(=O)c2O)cc1OC` [Compound C11], the inhibition at 200 µM in assay [1] (setting [2]) is 31 ± 3%. Same read-out and setting: the figure for `COc1ccc2c(=O)c(O)c(-c3ccc(OCc4ccccc4)c(OCc4ccccc4)c3)oc2c1OC` [Compound C12] is less than 20%; for `COc1ccc(-c2oc3c(OCc4ccccc4)c(OCc4ccccc4)ccc3c(=O)c2O)cc1OC` [Compound C13] it is 32 ± 3%. Turning to `O=c1cc(-c2ccccc2)oc2cc(O)cc(O)c12` [Compound D1, Chrysin], the “Inhibitory activity” value in assay [1] is given as “no inhibitory effect”. For the same molecule, in assay [1] (setting [2]), the inhibition at 50 µM was less than 20%.

Regarding `O=c1c(O)c(-c2ccccc2)oc2cc(O)cc(O)c12` [Compound D2, Galangin], the inhibition at 200 µM in assay [1] (setting [2]) turned out to be 21 ± 3%. Turning to `O=c1cc(-c2ccccc2)oc2cc(O)c(O)c(O)c12` [Compound D3, Baicalein], the 50% inhibitory concentration (IC50) in assay [1] (setting [3]) amounted to 44 ± 3 µM. With `O=c1cc(-c2cccc(O)c2)oc2cc(O)cc(O)c12` [Compound D4], the half-maximal inhibitory concentration (IC50) in assay [1] was determined as 89 ± 3 µM.

Consider `O=c1cc(-c2ccc(O)cc2)oc2cc(O)cc(O)c12` [Compound D5, Apigenin], for which the half-maximal inhibitory concentration (IC50) in assay [1] came out at 82 ± 6 µM. On to `O=c1cc(-c2ccc(O)c(O)c2)oc2cc(O)cc(O)c12` [Compound D7, Luteolin], for which the IC50 in assay [1] (setting [3]) amounted to 46 ± 6 µM. As for `O=c1c(O)c(-c2ccc(O)c(O)c2)oc2cc(O)cc(O)c12` [Compound D8, Quercetin], the Type of inhibition entry was “Competitive” on yeast α-glucosidase and “mixed type inhibitor” in the assay with α-glucosidase. As to `O=c1c(O)c(-c2ccc(O)cc2O)oc2cc(O)cc(O)c12` [Compound D9, Morin], the half-inhibitory concentration (IC50) in assay [1] was found to be 32 ± 2 µM. For `O=c1c(Cl)c(-c2ccc(O)c(O)c2)oc2cc(O)cc(O)c12` [Compound D10], at yeast α-glucosidase (setting [4]), the Ki was 51 ± 6 µM. Moreover, the Type of inhibition entry on yeast α-glucosidase is “Non-competitive”. Besides, in assay [1], the half-maximal inhibitory concentration (IC50) was found to be 21 ± 2 µM. With `O=c1cc(-c2ccc(O)c(O)c2)oc2cc(O)c(Cl)c(O)c12` [Compound D11], the IC50 in assay [1] (setting [3]) was roughly 200 µM.

Take `O=c1cc(-c2ccc(O)c(O)c2)oc2c(Cl)c(O)cc(O)c12` [Compound D12]: the IC50 in assay [1] turned out to be 55 ± 2 µM. For `O=c1c(Cl)c(-c2ccc(O)c(O)c2)oc2c(Cl)c(O)cc(O)c12` [Compound D13], the IC50 in assay [1] was 43 ± 3 µM.

As to `O=c1cc(-c2ccc(O)c(O)c2)oc2c(Cl)c(O)c(Cl)c(O)c12` [Compound D14], the half-maximal inhibitory concentration (IC50) in assay [1] was determined as 34 ± 3 µM. In the case of `COc1ccc(-c2cc(=O)c3c(O)cc(O)cc3o2)cc1` [Compound D16, Acacetin], in assay [1] (setting [3]), the IC50 is roughly 200 µM. In the case of `COc1ccc(-c2cc(=O)c3c(O)cc(O)cc3o2)cc1OC` [Compound D17], the inhibition at 200 µM in assay [1] (setting [2]) was less than 20%. Consider `C[C@@H]1O[C@@H](OC[C@H]2O[C@@H](Oc3c(-c4ccc(O)c(O)c4)oc4cc(O)cc(O)c4c3=O)[C@H](O)[C@@H](O)[C@@H]2O)[C@H](O)[C@H](O)[C@H]1O` [Compound D18, Rutin], for which, in assay [1], the “Inhibitory activity” value was “low activity”. In addition, the inhibition at 200 µM in assay [1] (setting [2]) is less than 20%. Turning to `O=C1C[C@@H](c2ccc(O)cc2)Oc2cc(O)cc(O)c21` [Compound E1, Naringenin], in assay [1] (setting [2]), the inhibition at 200 µM is 45 ± 3%.

Take `O=C1C[C@@H](c2ccc(O)c(O)c2)Oc2cc(O)cc(O)c21` [Compound E2, Eriodictyol]: the inhibition at 200 µM in assay [1] (setting [2]) came out at 35 ± 4%. For the molecule `O=C1c2c(O)cc(O)cc2OC(c2ccc(O)c(O)c2)C1O` (stereo not drawn) [Compound E3, Taxifolin], the Ki at yeast α-glucosidase (setting [4]) turned out to be 347 ± 15 µM. At yeast α-glucosidase, the Type of inhibition entry is reported as “Non-competitive”. The half-maximal inhibitory concentration (IC50) in assay [1] is roughly 200 µM.
